PubChem BioAssay (NCI)
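A five-concentration, 48-hour dose response in 96-well plates underlies each endpoint, interpolated linearly between surrounding concentrations. At the GI50, growth is halved. TGI is the concentration that stops growth completely.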

Assays:
Test in all cases: NCI tumour cell line growth inhibition, 48 h
RXF 393 renal = system: RXF 393 renal
SK-MEL-2 melanoma = system: SK-MEL-2 melanoma
SF-539 CNS = system: SF-539 CNS
HL-60(TB) leukemia = system: HL-60(TB) leukemia
BT-549 breast = system: BT-549 breast
K-562 leukemia = system: K-562 leukemia
HS 578T breast = system: HS 578T breast
A498 renal = system: A498 renal
MDA-MB-435 = system: MDA-MB-435
SK-MEL-28 melanoma = system: SK-MEL-28 melanoma
SNB-19 CNS = system: SNB-19 CNS
NCI/ADR-RES ovarian = system: NCI/ADR-RES ovarian
SK-MEL-5 melanoma = system: SK-MEL-5 melanoma
SF-268 CNS = system: SF-268 CNS
U251 CNS = system: U251 CNS
HOP-92 NSCLC = system: HOP-92 NSCLC
MDA-MB-231 breast = system: MDA-MB-231 breast
TK-10 renal = system: TK-10 renal
NCI-H460 lung = system: NCI-H460 lung
NCI-H226 lung = system: NCI-H226 lung
OVCAR-4 ovarian = system: OVCAR-4 ovarian
KM12 colon = system: KM12 colon
SF-295 CNS = system: SF-295 CNS
CCRF-CEM leukemia = system: CCRF-CEM leukemia
OVCAR-8 ovarian = system: OVCAR-8 ovarian
SNB-75 CNS = system: SNB-75 CNS
ACHN renal = system: ACHN renal
T-47D breast = system: T-47D breast
UACC-62 melanoma = system: UACC-62 melanoma
UO-31 renal = system: UO-31 renal
MOLT-4 leukemia = system: MOLT-4 leukemia
IGROV1 ovarian = system: IGROV1 ovarian
PC-3 prostate = system: PC-3 prostate
LOX IMVI melanoma = system: LOX IMVI melanoma
EKVX NSCLC = system: EKVX NSCLC
SN12C renal = system: SN12C renal
NCI-H522 lung = system: NCI-H522 lung
MCF7 breast = system: MCF7 breast
OVCAR-3 ovarian = system: OVCAR-3 ovarian
OVCAR-5 ovarian = system: OVCAR-5 ovarian
M14 melanoma = system: M14 melanoma
CAKI-1 renal = system: CAKI-1 renal
DU-145 prostate = system: DU-145 prostate
SK-OV-3 ovarian = system: SK-OV-3 ovarian
COLO 205 colon = system: COLO 205 colon
NCI-H23 lung = system: NCI-H23 lung
HCC-2998 colon = system: HCC-2998 colon
UACC-257 melanoma = system: UACC-257 melanoma
HT29 colon = system: HT29 colon
HOP-62 NSCLC = system: HOP-62 NSCLC
786-0 renal = system: 786-0 renal
SW-620 colon = system: SW-620 colon
HCT-15 colon = system: HCT-15 colon
A549 NSCLC = system: A549 NSCLC
MALME-3M melanoma = system: MALME-3M melanoma
RPMI-8226 leukemia = system: RPMI-8226 leukemia

## Clc1nc(Cl)c2ncn(Cc3cccc(COc4cccc(OCc5cccc(Cn6cnc7c(Cl)nc(Cl)nc76)c5)c4)c3)c2n1
RXF 393 renal
  GI50: 7.2 µM
  TGI: > 100 µM
SK-MEL-2 melanoma
  GI50: 17.1 µM
  TGI: > 100 µM
SF-539 CNS
  GI50: > 100 µM
  TGI: > 100 µM
HL-60(TB) leukemia
  GI50: 4.61 µM
  TGI: 31.3 µM
BT-549 breast
  GI50: 14.1 µM
  TGI: > 100 µM
K-562 leukemia
  GI50: 71.9 µM
  TGI: > 100 µM
HS 578T breast
  GI50: > 100 µM
  TGI: > 100 µM
A498 renal
  GI50: > 100 µM
  TGI: > 100 µM
MDA-MB-435
  GI50: 13.8 µM
  TGI: > 100 µM
SK-MEL-28 melanoma
  GI50: 90.3 µM
  TGI: > 100 µM
SNB-19 CNS
  GI50: > 100 µM
  TGI: > 100 µM
NCI/ADR-RES ovarian
  GI50: 53.1 µM
  TGI: > 100 µM
SK-MEL-5 melanoma
  GI50: 9.76 µM
  TGI: 46.1 µM
SF-268 CNS
  GI50: > 100 µM
  TGI: > 100 µM
U251 CNS
  GI50: 36.9 µM
  TGI: > 100 µM
HOP-92 NSCLC
  GI50: 15.6 µM
  TGI: 69.2 µM
MDA-MB-231 breast
  GI50: 27.2 µM
  TGI: > 100 µM
TK-10 renal
  GI50: 37.5 µM
  TGI: > 100 µM
NCI-H460 lung
  GI50: > 100 µM
  TGI: > 100 µM
NCI-H226 lung
  GI50: 4.97 µM
  TGI: 27.5 µM
OVCAR-4 ovarian
  GI50: 32 µM
  TGI: > 100 µM
KM12 colon
  GI50: 34.6 µM
  TGI: > 100 µM
SF-295 CNS
  GI50: > 100 µM
  TGI: > 100 µM
CCRF-CEM leukemia
  GI50: 5.24 µM
  TGI: > 100 µM
OVCAR-8 ovarian
  GI50: 24.7 µM
  TGI: > 100 µM
SNB-75 CNS
  GI50: > 100 µM
  TGI: > 100 µM
ACHN renal
  GI50: 54.5 µM
  TGI: > 100 µM
T-47D breast
  GI50: 25.8 µM
  TGI: > 100 µM
UACC-62 melanoma
  GI50: 60 µM
  TGI: > 100 µM
UO-31 renal
  GI50: 66.4 µM
  TGI: > 100 µM
MOLT-4 leukemia
  GI50: 4.73 µM
  TGI: > 100 µM
IGROV1 ovarian
  GI50: 60.8 µM
  TGI: > 100 µM
PC-3 prostate
  GI50: 14.6 µM
  TGI: 47 µM
LOX IMVI melanoma
  GI50: 23.9 µM
  TGI: > 100 µM
EKVX NSCLC
  GI50: > 100 µM
  TGI: > 100 µM
SN12C renal
  GI50: > 100 µM
  TGI: > 100 µM
NCI-H522 lung
  GI50: 41.1 µM
  TGI: > 100 µM
MCF7 breast
  GI50: 31.1 µM
  TGI: > 100 µM
OVCAR-3 ovarian
  GI50: 7.26 µM
  TGI: 34.7 µM
OVCAR-5 ovarian
  GI50: > 100 µM
  TGI: > 100 µM
M14 melanoma
  GI50: 26.1 µM
  TGI: > 100 µM
CAKI-1 renal
  GI50: > 100 µM
  TGI: > 100 µM
DU-145 prostate
  GI50: 14.2 µM
  TGI: 42.8 µM
SK-OV-3 ovarian
  GI50: > 100 µM
  TGI: > 100 µM
COLO 205 colon
  GI50: > 100 µM
  TGI: > 100 µM
NCI-H23 lung
  GI50: 54.5 µM
  TGI: > 100 µM
HCC-2998 colon
  GI50: 17.9 µM
  TGI: 33.2 µM
UACC-257 melanoma
  GI50: 13.5 µM
  TGI: > 100 µM
HT29 colon
  GI50: > 100 µM
  TGI: > 100 µM
HOP-62 NSCLC
  GI50: 58.2 µM
  TGI: > 100 µM
786-0 renal
  GI50: 74.8 µM
  TGI: > 100 µM
SW-620 colon
  GI50: > 100 µM
  TGI: > 100 µM
HCT-15 colon
  GI50: 39 µM
  TGI: > 100 µM
A549 NSCLC
  GI50: > 100 µM
  TGI: > 100 µM
MALME-3M melanoma
  GI50: > 100 µM
  TGI: > 100 µM
RPMI-8226 leukemia
  GI50: 2.61 µM
  TGI: 54.8 µM
